Measured values from patent US20250066328A1, “PARP7 INHIBITORS” (Gilead Sciences, Inc., priority 2023, published 2025).

The molecules below were run on STAT1 (phosphorylated at Tyr701) in NCI-H1373 cells (assay: Phospho-STAT1 (Tyr701) LANCE Ultra TR-FRET detection assay in NCI-H1373 cells). Details: Homo sapiens, NCI-H1373, 48 h, 48 hours incubation, induction of pSTAT1, normalized to 10 uM positive control and DMSO, 4-parameter fit, read-out: NH1373 pSTAT1 EC50.
Format: cell-based
Description: Phospho-STAT1 (Tyr701 LANCE Ultra TR-FRET Detection Assay
LANCE Ultra phospho-STAT1 (Tyr701) kits are designed for the detection of phosphorylated STAT1 in cell lysates using a simple, homogeneous LANCE Ultra sandwich assay (Cat. #TRF4028M). This assay is intended for assessing compound induction of endogenous levels of cellular STAT1 (phosphorylated at Tyr701) in NCI-H1373 cells. The NCI-H1373 cells are cultured in RPMI 1640 media containing 10% heat inactivated FBS, GlutaMAX, 1% Penicillin-Streptomycin. An Echo acoustic liquid handler is used to transfer 60 nanoliters of compound dilutions using the Echo Qualified, 384-well polypropylene microplate clear flat bottom source plates into a Greiner (#781080) cell culture microplate. NCI-H1373 cells are seeded into these compound-spotted culture plates at 30,000 cells/well in a 60 uL volume in growth media. The plates are incubated in a 5% CO2 humidified incubator at 37° C. for 48 hours. […] Briefly, […] of supplemented lysis buffer is added to each well and allowed to shake for 1 hour at 400 rpm. Next, 5 ul of remixed antibody solutions (vol/vol) prepared in detection buffer are added to each well and allowed to incubate at room temperature overnight. After spinning the plate down at 300 rpm for 1 min, the plate is read on an EnVision plate reader set up for Eu^3+ Cryptate and fluorescence emission is measured at two different wavelengths (665 nm and 620 nm). The HTRF ratio is then calculated ([…]) for each well to determine the amount of pSTAT1 in the cell lysate, and the data is then normalized to 10 uM (S)-5-((1-(3-oxo-3-(4-(5-(trifluoromethyl)pyrimidin-2-yl)piperazin-1-yl)propoxy)propan-2-yl)amino)-4-(trifluoromethyl)pyridazin-3(2H)-one positive and DMSO negative controls. The values were then plotted as a function of compound concentration and a 4-parameter fit was applied to derive the EC50 values.

| SMILES | EC50 [nM] |
| --- | --- |
| C[C@@H](C[C@H](F)Cn1cc(F)c2cc(-c3ncc(C(F)F)cn3)c(F)cc2c1=O)Oc1cn[nH]c(=O)c1C(F)(F)F [Example 62] | 1.69 |
| O=c1[nH]ncc(N[C@@H](CO)C[C@@H](F)Cn2ccc3cc(-c4ncc(Cl)cn4)c(F)cc3c2=O)c1C(F)(F)F [Example 124] | 11.1 |
| COc1cnc(-c2cc3ccn(C[C@H](F)C[C@H](C)Nc4cn[nH]c(=O)c4C(F)(F)F)c(=O)c3cc2F)nc1 (single isomer, unassigned) [Example 6] | 0.809 |
| C[C@@H](C[C@@H](O)Cn1ccc2cc(-c3nc4ccccn4n3)c(F)cc2c1=O)Nc1cn[nH]c(=O)c1C(F)(F)F (single isomer, unassigned) [Example 22] | 2.7 |
| C[C@@H](C[C@@H](F)Cn1cnc2cc(-c3ncc(C(F)F)c(N)n3)c(F)cc2c1=O)Nc1cn[nH]c(=O)c1C(F)(F)F [Example 69] | 19 |
| C[C@@H](C[C@@H](F)Cn1ccc2cc(-c3ncc4c(n3)NCCO4)c(F)cc2c1=O)Nc1cn[nH]c(=O)c1C(F)(F)F [Example 113] | 1.94 |
| [2H]C([2H])([2H])Oc1cnc(-c2cc3ncn(C[C@H](F)C[C@H](C)Nc4cn[nH]c(=O)c4C(F)(F)F)c(=O)c3cc2F)nc1 [Example 115] | 7.27 |
| CC(O)c1cnc(-c2cc3ccn(C[C@H](F)C[C@H](C)Nc4cn[nH]c(=O)c4C(F)(F)F)c(=O)c3cc2F)nc1 (some centres unmarked) [Example 111] | 4.64 |
| C[C@@H](C[C@@H](F)Cn1ccc2cc(-c3ncc(C(F)(F)F)cn3)c(F)cc2c1=O)Oc1cn[nH]c(=O)c1C(F)(F)F [Example 12] | 45.1 |
| C[C@@H](C[C@@H](F)Cn1ccc2cc(-c3ncc(C(F)F)cn3)c(F)cc2c1=O)Oc1cn[nH]c(=O)c1C(F)(F)F [Example 48] | 1.05 |
| C[C@@H](C[C@@H](F)Cn1cnc2cc(-c3ncc(C(F)F)cn3)c(F)cc2c1=O)Nc1cn[nH]c(=O)c1C(F)(F)F [Example 70] | 3.31 |
| C[C@@H](C[C@@H](F)Cn1ccc2cc(-c3ncc(C(C)(F)F)cn3)c(F)c(F)c2c1=O)Oc1cn[nH]c(=O)c1C(F)(F)F [Example 46] | 0.667 |
| O=c1[nH]ncc(N[C@@H](CO)C[C@@H](F)Cn2ccc3cc(-c4ncc(C(F)F)cn4)c(F)cc3c2=O)c1C(F)(F)F [Example 125] | 41.2 |
| C[C@@H](C[C@@H](F)Cn1cnc2cc(-c3ncc(C(C)(F)F)cn3)c(F)cc2c1=O)Nc1cn[nH]c(=O)c1C(F)(F)F [Example 107] | 2.52 |
| C[C@@H](C[C@@H](F)Cn1ccc2cc(-c3ncco3)c(F)cc2c1=O)Nc1cn[nH]c(=O)c1C(F)(F)F [Example 102] | 170 |
| C[C@@H](C[C@@H](F)Cn1ccc2cc(-c3ncc(C(F)(F)F)cn3)c(F)c(F)c2c1=O)Oc1cn[nH]c(=O)c1C(F)(F)F [Example 47] | 0.814 |
| C[C@@H](C[C@@H](F)CN1Cc2cc(-c3ncc(C(F)(F)F)cn3)c(F)cc2C1=O)Nc1cn[nH]c(=O)c1C(F)(F)F [Example 117, 6-fluoro-2-[(2R,4S)-2-fluoro-4-[[6-oxo-5-(trifluoromethyl)-1H-pyridazin-4-yl]amino]pentyl]-5-[5-(trifluoromethyl)pyrimidin-2-yl]isoindolin-1-one] | 11.8 |
| CC[C@@H](C[C@@H](F)Cn1ccc2cc(-c3ncc(C(F)(F)F)cn3)c(F)cc2c1=O)Nc1cn[nH]c(=O)c1C(F)(F)F [Example 118, 7-fluoro-2-((2R,4S)-2-fluoro-4-((6-oxo-5-(trifluoromethyl)-1,6-dihydropyridazin-4-yl)amino)hexyl)-6-(5-(trifluoromethyl)pyrimidin-2-yl)isoquinolin-1(2H)-one] | 2.18 |
| C[C@@H](C[C@@H](F)Cn1ccc2cc(-c3ncc([C@@H](F)CF)cn3)c(F)cc2c1=O)Nc1cn[nH]c(=O)c1C(F)(F)F [Example 92] | 1.89 |
| C[C@@H](C[C@@H](F)Cn1ccc2cc(-c3ncc([C@H](O)C(F)F)cn3)c(F)cc2c1=O)Nc1cn[nH]c(=O)c1C(F)(F)F [Example 81] | 5.83 |
| C[C@@H](C[C@@H](F)Cn1ccc2cc(-c3ncc(C(C)(C)F)cn3)c(F)cc2c1=O)Nc1cn[nH]c(=O)c1C(F)(F)F [Example 96] | 1.61 |
| C[C@@H](C[C@H](O)Cn1ccc2cc(-c3ncc(C(F)F)cn3)c(F)cc2c1=O)Oc1cn[nH]c(=O)c1C(F)(F)F (single isomer, unassigned) [Example 20] | 33 |

| SMILES | EC50 [nM] |
| --- | --- |
| C[C@@H](C[C@H](O)Cn1ccc2cc(-c3nc4ccccn4n3)c(F)cc2c1=O)Nc1cn[nH]c(=O)c1C(F)(F)F (single isomer, unassigned) [Example 23] | 7.18 |
| O=c1[nH]ncc(N[C@@H](CO)C[C@@H](F)Cn2ccc3cc(-c4ncc(C(F)(F)F)cn4)c(F)cc3c2=O)c1C(F)(F)F [Example 123, 7-fluoro-2-((2R,4R)-2-fluoro-5-hydroxy-4-((6-oxo-5-(trifluoromethyl)-1,6-dihydropyridazin-4-yl)amino)pentyl)-6-(5-(trifluoromethyl)pyrimidin-2-yl)isoquinolin-1(2H)-one] | 16.2 |
| C[C@@H](C[C@H](F)Cn1ccc2cc(-c3ncc(C(F)(F)F)cn3)c(F)cc2c1=O)Nc1cn[nH]c(=O)c1C(F)(F)F (single isomer, unassigned) [Example 3] | 11.7 |
| C[C@@H](C[C@@H](F)Cn1ccc2cc(-c3ncc(S(C)(=O)=O)cn3)c(F)cc2c1=O)Oc1cn[nH]c(=O)c1C(F)(F)F [Example 41] | 402 |
| C[C@@H](C[C@@H](F)Cn1cc(F)c2cc(-c3ncc(C(F)(F)F)cn3)c(F)cc2c1=O)Nc1cn[nH]c(=O)c1C(F)(F)F [Example 30] | 1.54 |
| C[C@@H](C[C@@H](F)Cn1cc(F)c2cc(-c3ncc(C(F)F)c(N)n3)c(F)cc2c1=O)Nc1cn[nH]c(=O)c1C(F)(F)F [Example 24, 6-(4-amino-5-(difluoromethyl)pyrimidin-2-yl)-4,7-difluoro-2-((2R,4S)-2-fluoro-4-((6-oxo-5-(trifluoromethyl)-1,6-dihydropyridazin-4-yl)amino)pentyl)isoquinolin-1(2H)-one] | 2.39 |
| C[C@@H](C[C@@H](F)Cn1ccc2cc(-c3ncc(C4CC4)cn3)c(F)cc2c1=O)Nc1cn[nH]c(=O)c1C(F)(F)F [Example 95] | 1.36 |
| C[C@@H](C[C@H](F)Cn1cc(F)c2cc(-c3ncc(C(F)(F)F)cn3)c(F)cc2c1=O)Oc1cn[nH]c(=O)c1C(F)(F)F [Example 65] | 2.85 |
| C[C@@H](C[C@@H](F)Cn1ccc2cc(-c3ncc(C(C)(O)C(F)(F)F)cn3)c(F)cc2c1=O)Nc1cn[nH]c(=O)c1C(F)(F)F (some centres unmarked) [Example 84] | 2.79 |
| C[C@@H](C[C@@H](F)Cn1ccc2cc(-c3ncc(C(C)(C)O)cn3)c(F)cc2c1=O)Nc1cn[nH]c(=O)c1C(F)(F)F (single isomer, unassigned) [Example 8] | 3.55 |
| C[C@@H](C[C@@H](F)Cn1ccc2cc(-c3ncc(OC(F)(F)F)cn3)c(F)cc2c1=O)Nc1cn[nH]c(=O)c1C(F)(F)F [Example 77] | 2.5 |
| C[C@@H](C[C@@H](F)Cn1cnc2cc(-c3ncc(C(F)(F)F)cn3)c(F)cc2c1=O)Nc1cn[nH]c(=O)c1C(F)(F)F [Example 71] | 2.17 |
| COc1cnc(-c2cc3ncn(C[C@@H](F)C[C@H](C)Oc4cn[nH]c(=O)c4C(F)(F)F)c(=O)c3cc2F)nc1 [Example 67] | 3.44 |
| C[C@@H](C[C@@H](F)Cn1ccc2cc(-c3ncc(C(F)F)c(N)n3)c(F)c(F)c2c1=O)Nc1cn[nH]c(=O)c1C(F)(F)F [Example 101] | 4.36 |
| C[C@@H](C[C@@H](F)Cn1ccc2cc(-c3ncc(OC(F)(F)CO)cn3)c(F)cc2c1=O)Nc1cn[nH]c(=O)c1C(F)(F)F [Example 82] | 2.15 |
| C[C@@H](C[C@@H](F)Cn1cc(F)c2cc(-c3ncc(C(C)(C)O)cn3)c(F)cc2c1=O)Nc1cn[nH]c(=O)c1C(F)(F)F [Example 26] | 3.84 |
| C[C@@H](C[C@H](F)Cn1ccc2cc(-c3ncc(C(C)(C)O)cn3)c(F)cc2c1=O)Oc1cn[nH]c(=O)c1C(F)(F)F (single isomer, unassigned) [Example 61] | 158 |
| COc1cnc(-c2cc3c(F)cn(C[C@@H](F)C[C@H](C)Oc4cn[nH]c(=O)c4C(F)(F)F)c(=O)c3cc2F)nc1 [Example 63] | 2.05 |
| COc1cnc(-c2cc3ncn(C[C@H](F)C[C@H](C)Oc4cn[nH]c(=O)c4C(F)(F)F)c(=O)c3cc2F)nc1 (single isomer, unassigned) [Example 57] | 38.8 |
| C[C@@H](C[C@@H](F)Cn1ccc2cc(-c3ncc(OC(F)F)cn3)c(F)cc2c1=O)Nc1cn[nH]c(=O)c1C(F)(F)F [Example 97] | 0.97 |
| C[C@@H](C[C@@H](F)Cn1ccc2cc(-c3ncc(C(F)(F)F)cc3F)c(F)cc2c1=O)Nc1cn[nH]c(=O)c1C(F)(F)F [Example 75] | 4.51 |
| COc1cnc(-c2cc3ccn(C[C@H](F)C[C@H](C)Oc4cn[nH]c(=O)c4C(F)(F)F)c(=O)c3c(F)c2F)nc1 [Example 44] | 0.375 |
